Assay: molar heat capacity at constant pressure; xn = mol fraction of the nth substance listed
Details: 100 kPa, Liquid, Small sample (50 mg) DSC

OCCCCO [1,4-butanediol] + CO
molar heat capacity at constant pressure [J/K/mol]
Details | 293.15 K | 298.15 K | 303.15 K | 308.15 K | 313.15 K | 318.15 K | 323.15 K
x1 = 0.1009 | 92.1 | 93.2 | 94.34 | 95.55 | 96.84 | 98.2 | 99.61
x1 = 0.1972 | 103.34 | 104.65 | 106 | 107.43 | 108.87 | 110.35 | 111.91
x1 = 0.2955 | 114.99 | 116.42 | 117.94 | 119.47 | 121.14 | 122.81 | 124.59
x1 = 0.4144 | 129.16 | 130.79 | 132.48 | 134.21 | 136.07 | 137.97 | 139.99
x1 = 0.5093 | 140.68 | 142.41 | 144.26 | 146.17 | 148.2 | 150.29 | 152.45
x1 = 0.624 | 154.46 | 156.51 | 158.55 | 160.74 | 162.92 | 165.25 | 167.5
x1 = 0.6996 | 163.59 | 165.7 | 167.88 | 170.13 | 172.46 | 174.93 | 177.4
x1 = 0.8004 | 175.9 | 178.18 | 180.54 | 182.97 | 185.48 | 188.08 | 190.75
x1 = 0.8591 | 183.21 | 185.59 | 188.05 | 190.59 | 193.21 | 195.91 | 198.7
x1 = 0.9043 | 188.15 | 190.69 | 193.23 | 195.85 | 198.55 | 201.34 | 204.22
x1 = 0.9565 | 194.9 | 197.44 | 200.07 | 202.87 | 205.67 | 208.56 | 211.63
x1 = 1 | 201.15 | 203.76 | 206.56 | 209.44 | 212.33 | 215.39 | 218.54

CC(O)C(C)O (stereo not given) [2,3-butanediol] + CO
molar heat capacity at constant pressure [J/K/mol]
Details | 293.15 K | 298.15 K | 303.15 K | 308.15 K | 313.15 K | 318.15 K | 323.15 K
x1 = 0.0456 | 86.73 | 87.8 | 88.95 | 90.13 | 91.37 | 92.66 | 94.01
x1 = 0.0847 | 92.44 | 93.66 | 94.92 | 96.21 | 97.54 | 98.95 | 100.35
x1 = 0.1972 | 108.82 | 110.3 | 111.78 | 113.35 | 114.96 | 116.61 | 118.31
x1 = 0.2792 | 121.32 | 122.96 | 124.65 | 126.34 | 128.08 | 129.81 | 131.6
x1 = 0.3824 | 136.66 | 138.56 | 140.46 | 142.41 | 144.36 | 146.37 | 148.43
x1 = 0.4673 | 150.38 | 152.39 | 154.41 | 156.48 | 158.55 | 160.68 | 162.81
x1 = 0.5862 | 168.13 | 170.37 | 172.69 | 174.93 | 177.25 | 179.63 | 182.01
x1 = 0.7041 | 186.64 | 189.05 | 191.46 | 193.94 | 196.41 | 198.89 | 201.45
x1 = 0.8169 | 204.52 | 207.14 | 209.84 | 212.55 | 215.17 | 217.87 | 220.58
x1 = 0.8832 | 214.76 | 217.34 | 220.01 | 222.68 | 225.26 | 227.93 | 230.59
x1 = 0.9271 | 221.76 | 224.59 | 227.34 | 230.18 | 233.01 | 235.93 | 238.77
x1 = 0.9501 | 225.38 | 228 | 230.7 | 233.32 | 236.11 | 238.82 | 241.61
x1 = 1 | 233.95 | 236.66 | 239.36 | 242.07 | 244.77 | 247.47 | 250.18

From the NIST ThermoML archive (doi:10.1016/j.jct.2014.07.023)
